IC50 data for 15 compounds are collected here from US9776972B2, “Pyrazole derivatives as arginine methyltransferase inhibitors and uses thereof” (priority 2013, dated 2017).

Molecules are shown by their SMILES. Bounds are passed on as bounds.

human PRMT3, sequence (O60678 with tags, fused parts or gaps): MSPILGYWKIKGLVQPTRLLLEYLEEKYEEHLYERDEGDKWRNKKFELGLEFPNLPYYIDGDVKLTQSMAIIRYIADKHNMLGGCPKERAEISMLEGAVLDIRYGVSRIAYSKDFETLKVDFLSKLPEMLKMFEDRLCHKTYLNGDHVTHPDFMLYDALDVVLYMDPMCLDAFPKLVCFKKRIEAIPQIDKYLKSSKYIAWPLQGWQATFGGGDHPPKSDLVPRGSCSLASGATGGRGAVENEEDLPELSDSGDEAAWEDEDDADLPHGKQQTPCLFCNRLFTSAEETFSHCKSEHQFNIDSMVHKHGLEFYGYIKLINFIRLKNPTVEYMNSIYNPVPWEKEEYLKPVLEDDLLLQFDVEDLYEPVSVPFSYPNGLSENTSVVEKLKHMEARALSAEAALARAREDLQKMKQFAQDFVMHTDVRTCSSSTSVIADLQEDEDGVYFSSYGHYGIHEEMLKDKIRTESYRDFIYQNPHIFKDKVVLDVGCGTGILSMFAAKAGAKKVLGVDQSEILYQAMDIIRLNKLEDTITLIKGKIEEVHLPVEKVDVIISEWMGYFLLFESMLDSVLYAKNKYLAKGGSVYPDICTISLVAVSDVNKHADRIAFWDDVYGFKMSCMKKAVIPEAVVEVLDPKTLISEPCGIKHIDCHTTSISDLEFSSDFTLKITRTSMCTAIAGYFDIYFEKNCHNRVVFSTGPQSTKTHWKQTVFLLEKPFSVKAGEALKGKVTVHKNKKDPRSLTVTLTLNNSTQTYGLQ

This assay has as its target human PRMT3 (Homo sapiens, UniProt O60678). Nature of the assay: PRMT3 Biochemical Assay (3H-SAM Flashplate, peptide substrate). As to conditions: single experiment or average of multiple experiments. The text has this: S-adenosylmethionine (SAM), S-adenosylhomocysteine (SAH), bicine, Tween20, dimethylsulfoxide (DMSO), bovine skin gelatin (BSG), isopropyl-β-D-thiogalactopyranoside (IPTG), and Tris(2-carboxyethyl)phosphine hydrochloride solution (TCEP) were purchased from Sigma-Aldrich at the highest level of purity possible. ^3H-SAM was purchase from American Radiolabeled Chemicals with a specific activity of 80 Ci/mmol. 384-well streptavidin Flashplates were purchased from PerkinElmer.
Peptide containing the classic RMT substrate motif was synthesized with an N-terminal linker-affinity tag motif and a C-terminal amide cap by 21st Century Biochemicals. The peptide was purified by high-performance liquid chromatography (HPLC) to greater than 95% purity and confirmed by liquid chromatography mass spectrometry (LC-MS). The sequence was Biot-Ahx-[…]-amide (SEQ ID NO.:11).
Full-length human PRMT3 (NM_005788.3) isoform 1 transcript clone was amplified from an HEK 293 cDNA library and subcloned into pGEX-KG (GE Life Sciences). The resulting construct encodes an N-terminal GST tag and a thrombin cleavage sequence ([…] […] […] […]) (SEQ ID NO.: 12) fused directly to Cys 2 of PRMT3.
E. coli (BL21(DE3) Gold, Stratagene) made competent by the CaCl2 method were transformed with the PRMT3 construct and ampicillin selection. Protein over-expression was accomplished by growing the PRMT3 expressing E. coli clone and inducing expression with 0.3 mM IPTG at 16° C. The culture was grown for 12 hours, harvested by centrifugation, and stored at −80° C. for purification.
GST-tagged PRMT3 was eluted with 50 mM Tris, 2 mM glutathione, pH 7.1 and 50 mM Tris, 20 mM glutathione, pH 7.1. Pooled fractions were dialysed in 20 mM Tris, 50 mM NaCl, 5% glycerol, 1 mM EDTA, 1 mM DTT, pH7.5 (Buffer B) and applied to a Q Sepharose Fast Flow column. GST-tagged PRMT3 was eluted by 500 mM NaCl in buffer B. Pooled fractions were dialyzed in 25 mM phosphate buffer, 100 mM NaCl, 5% glycerol, 2 mM DTT, pH 6.8 (Buffer C) and loaded on to a ceramic hydroxyapatite column. GST-tagged PRMT3 eluted with 25-400 mM phosphate in buffer C. Protein was concentrated and buffer was exchanged to 20 mM Tris, 150 mM NaCl, 5% glycerol, 5 mM β-mercaptoethanol, pH7.8 by ultrafiltration. The purity of recovered protein was 70%.
General Procedure for PRMT3 Enzyme Assays on Peptide Substrates.
The assays were all performed in a buffer consisting of 20 mM Bicine (pH=7.6), 1 mM TCEP, 0.005% BSG, and 0.002% Tween 20, prepared on the day of use. Compounds in 100% DMSO (1 ul) were spotted into a polypropylene 384-well V-bottom plates (Greiner) using a Platemate Plus outfitted with a 384-channel head (Thermo Scientific). DMSO (1 ul) was added to Columns 11, 12, 23, 24, rows A-H for the maximum signal control and 1 ul of SAH, a known product and inhibitor of PRMT3, was added to columns 11, 12, 23, 24, rows I-P for the minimum signal control. A cocktail (40 ul) containing the PRMT3 enzyme was added by Multidrop Combi (Thermo-Fisher). The compounds were allowed to incubate with PRMT3 for 30 min at room temperature, then a cocktail (10 ul) containing SAM and peptide was added to initiate the reaction (final volume=51 ul). The final concentrations of the components were as follows: PRMT3 was 0.5 nM, ^3H-SAM was 100 nM, non-radiolabeled SAM was 1.8 uM, peptide was 330 nM, SAH in the minimum signal control wells was 1 mM, and the DMSO concentration was 2%. The assays were stopped by the addition of potassium chloride (10 ul) to a final concentration of 100 mM. 50 ul of the reaction in the 384-well polypropylene plate was then transferred to a 384-well Flashplate and the biotinylated peptides were allowed to bind to the streptavidin surface for at least 1 hour before being washed once with 0.1% Tween20 in a Biotek ELx405 plate washer. […]
For orientation: IC50 means the concentration at which inhibition is half-maximal. The low end stands for greater potency, the high end for weaker potency. Compound `COc1ccc(-c2n[nH]cc2CN(C)CCN)c(C)c1` [Compound 155] had an IC50 of 8.56 µM. In other words, the single-digit micromolar range.

`Cc1cc(F)ccc1-c1n[nH]cc1CN(C)CCN` [Compound 152] showed a half-inhibitory concentration (IC50) of 9.63 µM.

Turning to `CNCCN(C)Cc1cnn(C(C)C)c1-c1ccc(F)cc1` [Compound 16], the concentration for half-maximal inhibition (IC50) was greater than 50 µM.

As for `COCCOc1ccc(-c2n[nH]cc2CN(C)CCN)cc1` [Compound 167], the IC50 worked out at 3.74 µM. This lies in the single-digit micromolar range.

`CN(CCN)Cc1c[nH]nc1-c1cccc(N(C)C)c1` [Compound 149] yielded an IC50 of 9.02 µM.

For `CNCCN(C)Cc1cn[nH]c1-c1cc(F)cc(F)c1` [Compound 18], 7.43 µM corresponded to half-maximal inhibition (IC50).

For `COc1ccc(-c2n[nH]cc2CN(C)CCN)cc1` [Compound 153], the IC50 was determined as 4.1 µM.

With `CNCCN(C)Cc1cnn(C2CC2)c1-c1ccc(F)cc1` [Compound 14], the IC50 amounted to 23.3 µM.

For the compound `CNCCN(C)Cc1cn[nH]c1-c1ccc(C#N)cc1` [Compound 17], the 50% inhibitory concentration (IC50) is 2.79 µM.

For the compound `CN(CCN)Cc1n[nH]cc1-c1ccc(C2CCOCC2)cc1` [Compound 145], the IC50 was determined as 7.18 µM.

As for `CN(CCN)Cc1c[nH]nc1-c1ccc(OCCN2CCOCC2)cc1` [Compound 172], inhibition was half-maximal at 3.41 µM (IC50).

On to `CCOc1ccc(-c2n[nH]cc2CN(C)CCN)cc1` [Compound 166], for which the IC50 is 3.45 µM.

The compound `Cc1ccc(-c2n[nH]cc2CN(C)CCN)cc1` [Compound 162] returned a half-inhibitory concentration (IC50) of 3.52 µM.

With `COc1ccc(-c2n[nH]cc2CN(C)CCN)c(Cl)c1` [Compound 146], the concentration for half-maximal inhibition (IC50) came out at 9 µM.

In the case of `CC(C)Cc1ccc(-c2c[nH]nc2CN(C)CCN)cc1` [Compound 170], the half-maximal inhibitory concentration (IC50) was determined as 7.33 µM.
